16 compounds from patent US11564920B2, “5-heteroaryl-1H-pyrazol-3-amine derivative” (Sumitomo Pharma Co., Ltd., priority 2020, dated 2023) can be followed below.

One experiment concerns the target CHK1 (Homo sapiens (Human), UniProt O14757). Briefly: CHK1 inhibitory activity test (IMAP TR-FRET). It counts as biochemical. The settings on record: for effect of suppressing CHK1 activity (in words): compared with prexasertib; for inhibition at 0.0001 µM: read-out: CHK1 inhibition % at 0.1 nM. Here is the method:
IMAP TR-FRET Screening Express Kit (R8160) was obtained from Molecular Devices. […] FAM-PKAtide (R7255, Molecular Devices) and FAM-Phospho-PKAtide (R7304, Molecular Devices) were admixed after dilution, and calibration standard systems for phosphorylation levels from 0 to 100% were created. 5 μL of a compound dissolved in a 0.4% DMSO solution was added to a 384 well plate. A compound study group to which 5 μL of each of CHK1, CHK1tide, and ATP was added, and a standard group to which 20 μL of standard was added were created, and subjected to a kinase reaction for 3 hours at 30° C. Subsequently, 60 μL of Binding Reagent (80% Buffer A, 20% Buffer B, 1:600 Binding Reagent, 1:400 Tb-Donor) was added for a binding reaction for 2 hours at room temperature.

The next experiment concerns ES-2 cells. Briefly: Cell growth suppression experiment. Type of experiment: cell-based. The settings on record: for IC50: Homo sapiens, 48 h, cultured for 2 days, read-out: IC50 (cell growth suppression, ranking); for cell growth suppression effect (in words): compared with prexasertib. As to the method:
ES-2 cells were obtained from the American Type Culture Collection (ATCC). These cells were cultured at 37° C. in the presence of 5% CO2 in a 10% fetal bovine serum, […] penicillin/streptomycin containing McCoy's 5a medium.
500 cells were seeded for each well in a 384-well plate, and the evaluated compound was added so that the final concentration of DMSO would be 0.1% to culture the cells for 2 days. After completion of the culture, the cell viability rate was calculated using CellTiter-Glo® 3D Reagent (Promega, G968B).

Molecules are shown by their SMILES.

Chain of CHK1 (O14757 whole entry): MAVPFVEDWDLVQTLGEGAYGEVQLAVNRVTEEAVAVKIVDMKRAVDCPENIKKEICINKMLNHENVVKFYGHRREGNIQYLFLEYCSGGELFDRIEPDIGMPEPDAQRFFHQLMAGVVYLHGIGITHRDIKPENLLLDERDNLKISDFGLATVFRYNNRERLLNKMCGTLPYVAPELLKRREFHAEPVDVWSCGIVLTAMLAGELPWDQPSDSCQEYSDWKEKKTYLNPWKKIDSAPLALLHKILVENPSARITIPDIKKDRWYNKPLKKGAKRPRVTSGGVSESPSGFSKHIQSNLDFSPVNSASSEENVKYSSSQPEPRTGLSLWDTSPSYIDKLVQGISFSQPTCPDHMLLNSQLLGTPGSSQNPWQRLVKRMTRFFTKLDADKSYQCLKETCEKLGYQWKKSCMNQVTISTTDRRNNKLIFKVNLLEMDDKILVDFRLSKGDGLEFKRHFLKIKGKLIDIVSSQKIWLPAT

Consider `COc1cncc(OCC2CNC2)c1-c1cc(Nc2cnc(C#N)cn2)n[nH]1` [Example 18, 5-({5-[3-(azetidin-3-yl)methoxy-5-methoxypyridin-4-yl]-1H-pyrazol-3-yl}amino)pyrazine-2-carbonitrile], for which, at CHK1, the “effect of suppressing CHK1 activity (in words)” value is given as “more potent effect of suppressing CHK1 activity than prexasertib” and the inhibition at 0.0001 µM is < 5%. In the experiment with ES-2 cells, the concentration for half-maximal inhibition (IC50) is 30 to 100 nM.
`COc1cncc(O[C@H](C)C2CNC2)c1-c1cc(Nc2cnc(C#N)cn2)n[nH]1` [Example 33, 5-[(5-{3-[(1R)-1-(azetidin-3-yl)ethoxy]-5-methoxypyridin-4-yl}-1H-pyrazol-3-yl)amino]pyrazine-2-carbonitrile]: the inhibition at 0.0001 µM on CHK1 is < 5%. In the experiment with ES-2 cells, the 50% inhibitory concentration (IC50) was < 30 nM and the “cell growth suppression effect (in words)” value was “excellent cell growth suppression effect that is equivalent to that of prexasertib”.
For the compound `COc1cncc(OCC2(F)CNC2)c1-c1cc(Nc2cnc(C#N)cn2)n[nH]1` [Example 5, 5-[(5-{3-[(3-fluoroazetidin-3-yl)methoxy]-5-methoxypyridin-4-yl}-1H-pyrazol-3-yl)amino]pyrazine-2-carbonitrile], the inhibition at 0.0001 µM on CHK1 was 15%. Moreover, in the experiment with ES-2 cells, the IC50 was < 30 nM.
Turning to `CNCCCOc1cncc(OC)c1-c1cc(Nc2cnc(C#N)cn2)n[nH]1` [Example 31, 5-[(5-{3-methoxy-5-[3-(methylamino)propoxy]pyridin-4-yl}-1H-pyrazol-3-yl)amino]pyrazine-2-carbonitrile], the inhibition at 0.0001 µM at CHK1 is < 5%. For the same compound, in the experiment with ES-2 cells, the 50% inhibitory concentration (IC50) is < 30 nM and the “cell growth suppression effect (in words)” value was “excellent cell growth suppression effect that is equivalent to that of prexasertib”.
In the case of `COc1cncc(O[C@@H]2CCC[C@H](N)C2)c1-c1cc(Nc2cnc(C#N)cn2)n[nH]1` [Example 19, 5-{[5-(3-{[(1R,3S)-3-aminocyclohexyl]oxy}-5-methoxypyridin-4-yl)-1H-pyrazol-3-yl]amino}pyrazine-2-carbonitrile], on CHK1, the “effect of suppressing CHK1 activity (in words)” value is on record as “more potent effect of suppressing CHK1 activity than prexasertib” and the inhibition at 0.0001 µM stood at 20%. For the same compound, in the experiment with ES-2 cells, the IC50 was < 30 nM and the “cell growth suppression effect (in words)” value was “excellent cell growth suppression effect that is equivalent to that of prexasertib”.
The corresponding values for `COc1ccnc(OCCCN)c1-c1cc(Nc2cnc(Cl)cn2)n[nH]1` [Example 15, N-{5-[2-(3-aminopropoxy)-4-methoxypyridin-3-yl]-1H-pyrazol-3-yl}-5-chloropyrazin-2-amine] are “more potent effect of suppressing CHK1 activity than prexasertib”, 29%, < 30 nM and “excellent cell growth suppression effect that is equivalent to that of prexasertib”.
Consider `COc1cc(Cl)nc(OCCCN)c1-c1cc(Nc2cnc(C#N)cn2)n[nH]1` [Example 2, 5-({5-[2-(3-aminopropoxy)-6-chloro-4-methoxypyridin-3-yl]-1H-pyrazol-3-yl}amino)pyrazine-2-carbonitrile], for which, on CHK1, the “effect of suppressing CHK1 activity (in words)” value is given as “more potent effect of suppressing CHK1 activity than prexasertib” and the inhibition at 0.0001 µM was 31%. The IC50 in the experiment with ES-2 cells fell in the range of 30 to 100 nM.
For `COc1nccc(OCC2(C)CNC2)c1-c1cc(Nc2cnc(C#N)cn2)n[nH]1` [Example 6, 5-[(5-{2-methoxy-4-[(3-methylazetidin-3-yl)methoxy]pyridin-3-yl}-1H-pyrazol-3-yl)amino]pyrazine-2-carbonitrile], on CHK1, the “effect of suppressing CHK1 activity (in words)” value is listed as “more potent effect of suppressing CHK1 activity than prexasertib” and the inhibition at 0.0001 µM was 15%. In the experiment with ES-2 cells, the half-inhibitory concentration (IC50) is < 30 nM and the “cell growth suppression effect (in words)” value was “excellent cell growth suppression effect that is equivalent to that of prexasertib”.
As for `COc1ncnc(OCC2(CN)CC2)c1-c1cc(Nc2cnc(C#N)cn2)n[nH]1` [Example 23, 5-{[5-(4-{[1-(aminomethyl)cyclopropyl]methoxy}-6-methoxypyrimidin-yl)-1H-pyrazol-3-yl]amino}pyrazine-2-carbonitrile], at CHK1, the inhibition at 0.0001 µM is < 5%. The half-maximal inhibitory concentration (IC50) with ES-2 cells was < 30 nM.
On to `CN[C@@H]1CC[C@@H](Oc2cncc(OC)c2-c2cc(Nc3cnc(C#N)cn3)n[nH]2)C1` [Example 35, 5-{[5-(3-methoxy-5-{[(1R,3R)-3-(methylamino)cyclopentyl]oxy}pyridin-4-yl)-1H-pyrazol-3-yl]amino}pyrazine-2-carbonitrile], for which, on CHK1, the inhibition at 0.0001 µM was < 5%. Moreover, in the experiment on ES-2 cells, the IC50 was < 30 nM and the “cell growth suppression effect (in words)” value is “excellent cell growth suppression effect that is equivalent to that of prexasertib”.
For `COc1cncc(OCCCN)c1-c1cc(Nc2cnc(C#N)cn2)n[nH]1` [Example 3, 5-({5-[3-(3-aminopropoxy)-5-methoxypyridin-4-yl]-1H-pyrazol-3-yl}amino)pyrazine-2-carbonitrile], at CHK1, the “effect of suppressing CHK1 activity (in words)” value is “more potent effect of suppressing CHK1 activity than prexasertib” and the inhibition at 0.0001 µM amounted to 28%. Moreover, in the experiment with ES-2 cells, the IC50 was < 30 nM and the “cell growth suppression effect (in words)” value was “excellent cell growth suppression effect that is equivalent to that of prexasertib”.
As for `COc1cncc(OCC[C@@H](C)N)c1-c1cc(Nc2cnc(C#N)cn2)n[nH]1` [Example 9, 5-[(5-{3-[(3R)-3-aminobutoxy]-5-methoxypyridin-4-yl}-1H-pyrazol-3-yl)amino]pyrazine-2-carbonitrile], at CHK1, the “effect of suppressing CHK1 activity (in words)” value is recorded as “more potent effect of suppressing CHK1 activity than prexasertib” and the inhibition at 0.0001 µM amounted to 24%. The IC50 in the experiment with ES-2 cells was 30 to 100 nM.
On to `COc1cncc(OC[C@H](C)CN)c1-c1cc(Nc2cnc(C#N)cn2)n[nH]1` [Example 28], for which, at CHK1, the inhibition at 0.0001 µM is < 5%. Also, the IC50 with ES-2 cells was < 30 nM.
For the compound `COc1cncc(OCC2(CN)CC2)c1-c1cc(Nc2cnc(C#N)cn2)n[nH]1` [Example 11, 5-{[5-(3-{[1-(aminomethyl)cyclopropyl]methoxy}-5-methoxypyridin-4-yl)-1H-pyrazol-3-yl]amino}pyrazine-2-carbonitrile], at CHK1, the “effect of suppressing CHK1 activity (in words)” value is “more potent effect of suppressing CHK1 activity than prexasertib” and the inhibition at 0.0001 µM is 35%. Further, in the experiment on ES-2 cells, the half-maximal inhibitory concentration (IC50) is < 30 nM and the “cell growth suppression effect (in words)” value is given as “excellent cell growth suppression effect that is equivalent to that of prexasertib”.
As for `COc1cncc(OC[C@@H](O)CN)c1-c1cc(Nc2cnc(C#N)cn2)n[nH]1` [Example 14, 5-[(5-{3-[(2S)-3-amino-2-hydroxypropoxy]-5-methoxypyridin-4-yl}-1H-pyrazol-3-yl)amino]pyrazine-2-carbonitrile], at CHK1, the “effect of suppressing CHK1 activity (in words)” value was “more potent effect of suppressing CHK1 activity than prexasertib” and the inhibition at 0.0001 µM worked out at 30%. In the experiment with ES-2 cells, the IC50 is 300 to 1000 nM.
`COc1cncc(O[C@@H]2CC[C@@H](N)C2)c1-c1cc(Nc2cnc(C#N)cn2)n[nH]1` [Example 32, 5-{[5-(3-{[(1R,3R)-3-aminocyclopentyl]oxy}-5-methoxypyridin-4-yl)-1H-pyrazol-3-yl]amino}pyrazine-2-carbonitrile]: in the experiment with ES-2 cells, the IC50 was < 30 nM and the “cell growth suppression effect (in words)” value is given as “excellent cell growth suppression effect that is equivalent to that of prexasertib”.
